Test results as given in patent publication US12351574B2, “Selective ligands for modulation of GIRK channels” (Northeastern University, priority 2018, dated 2025).

What was measured:
elevated plus maze (EPM) = format: in vivo, rat; conditions: 30 mg/kg; vehicle group 30.6±4.4; trend
Method: Elevated plus maze (EPM): The EPM, as described previously was performed in a black Plexiglas apparatus (Hamilton Kinder, San Diego, CA) that consists of two open arms and two closed arms each 50.17 cm long and 10.8 cm wide. The closed arms have walls that are 40.01 cm high. The entire apparatus is elevated 100 cm above the ground on a square aluminum base. For a testing period of 5 min, anxiety is estimated by the amount of time rats spend in the closed versus open arms. Test sessions were video recorded by ceiling mounted cameras.

[1] = system: BLA neurons (GIRK currents); test: whole-cell patch-clamp in acute brain slices, basolateral amygdala (BLA) neurons; format: cell-based, rat; conditions: for current response of BLA neurons (in words): −50 mV
Method: Electrophysiological recordings from brain slices containing basolateral amygdala (BLA) neurons: Electrophysiology was performed using 150-200 g male Sprague-Dawley rats (Harlan/Envigo, Indianapolis, IN). Rats were group housed in plastic cages in standard housing conditions with ad libitum access to food and water with 12:12 light/dark cycle (lights on at 07:00 h). All experiments were conducted in accordance with the Guide for the Care and Use of Laboratory Animals (Institute for Laboratory Animal Research, The National Academies Press) and the guidelines of the IUPUI Institutional Animal Care and Use Committee. Rats were anesthetized with isoflurane and immediately decapitated. Brains were then rapidly removed, placed in ice-cold oxygenated artificial cerebrospinal fluid solution (ACSF) and coronal slices ([…]) were prepared containing the amygdala. Slices were incubated at 31° C. for 30 min and then returned to room temperature until recording. [ACSF solution in mM: 130 NaCl; 3.5 KCl; 1.1 KH2PO4; 1.3 MgCl2; 2.5 CaCl2; 30 NaHCO3; 10 glucose, 315 mOsm, 7.4 pH]. Cells were identified for recording at 40× magnification using Scientifica Slicescope microscope under DIC illumination (Scientifica, Uckfield, UK). ACSF was warmed to 30° C. and perfused at a rate of 2-3 ml/min during recordings. Compounds were added to ACSF at desired concentrations. Whole-cell patch-clamp recordings were obtained using standard techniques. Borosilicate glass electrodes (WPI, Sarasota, FL) (resistance 3-6 MΩ) were prepared and used for both recording and baclofen application. [Recording internal solution in mM: 140 K-gluconate; 2 KCl; 3 MgCl2; 10 HEPES; 5 Phosphocreatinine; 2 K-ATP; 0.2 Na-GTP, 290 mOsm, 7.4 pH]. In voltage-clamp mode, the cell was adjusted to −50 mV at the beginning of all experiments and 5 min stable baseline was established before treatment. Picospritzer II (Parker Hannifin, Hollis, NH) was utilized for local application of 100 μM GABA-B agonist baclofen in ACSF to activate GIRKs. Baseline and baclofen-induced currents were averaged from three responses per cell and analyzed using ClampFit software (Molecular Devices, San Jose, CA). […] Several control cells were subjected to baclofen at 2 min intervals for 30 min and consistent responses were observed, thus ruling out time-dependent effects.
The inventors employed whole-cell patch-clamp recording in acute brain slices to examine the effect of GAT1508. The inventors utilized brain slices that included the basolateral amygdala (BLA), a limbic structure that has been extensively described to coordinate the acquisition and expression of fear memories. […] Next, the inventors examined the response of BLA neurons to baclofen, a GABAB-receptor agonist that induces GIRK-mediated potassium currents. […]

GIRK1/2 = target: T1, GIRK1/2 (UniProt P48542+P48549); test: thallium flux assay, cells expressing GIRK1/2; format: cell-based; parameters: expressed in transfected cells
T1 sequence (P48549 1-501): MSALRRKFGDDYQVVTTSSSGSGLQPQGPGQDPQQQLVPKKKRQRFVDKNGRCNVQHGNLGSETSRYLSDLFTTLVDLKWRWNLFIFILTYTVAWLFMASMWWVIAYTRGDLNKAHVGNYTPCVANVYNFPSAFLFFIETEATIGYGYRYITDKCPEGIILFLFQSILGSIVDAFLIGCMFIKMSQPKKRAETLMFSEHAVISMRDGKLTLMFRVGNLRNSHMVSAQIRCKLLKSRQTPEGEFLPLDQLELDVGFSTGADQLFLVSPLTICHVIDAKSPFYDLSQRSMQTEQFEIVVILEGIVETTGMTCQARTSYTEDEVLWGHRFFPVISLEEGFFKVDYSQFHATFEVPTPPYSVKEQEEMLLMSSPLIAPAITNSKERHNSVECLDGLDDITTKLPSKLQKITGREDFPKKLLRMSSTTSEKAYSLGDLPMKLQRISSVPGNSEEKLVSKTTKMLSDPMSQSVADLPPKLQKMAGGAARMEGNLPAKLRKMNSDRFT
T1 sequence (P48542 1-425): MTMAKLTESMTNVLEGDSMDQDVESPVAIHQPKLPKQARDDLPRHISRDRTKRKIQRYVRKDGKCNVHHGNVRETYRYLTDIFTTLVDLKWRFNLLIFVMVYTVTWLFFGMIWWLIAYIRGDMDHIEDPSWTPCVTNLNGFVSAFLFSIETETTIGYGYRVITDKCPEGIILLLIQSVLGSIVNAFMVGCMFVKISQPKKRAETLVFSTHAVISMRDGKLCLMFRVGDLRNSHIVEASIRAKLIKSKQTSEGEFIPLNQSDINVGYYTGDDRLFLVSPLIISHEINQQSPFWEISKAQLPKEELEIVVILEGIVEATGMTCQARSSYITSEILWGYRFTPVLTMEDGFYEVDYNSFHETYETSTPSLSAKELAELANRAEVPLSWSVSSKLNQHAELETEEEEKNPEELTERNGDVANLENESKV
From the text: Previous studies have utilized the thallium flux Assay to test the effects of ML297 and related compounds in cells coexpressing GIRK1/2 and GIRK1/4. In order to fully investigate the selective activation of GAT compounds, the inventors also utilized this assay. […] To determine the differences between the thallium flux and TEVC assays, the inventors computationally tested whether the binding of selective compounds could affect the selectivity of the pore area. The Cα RMSF of the region between the M1 and M2 helices of the channel were calculated during the MD simulation with or without ML297 and the selective GAT compounds in the GIRK2/2^FD and GIRK4/4^FD systems (FIGS. 60A-60B). […] To further test this idea, the inventors compared the 10 μM GAT1508-induced thallium and potassium currents in oocytes expressing GIRK1/2 and GIRK1/4 by TEVC recording (FIG. 61B). […] In an effort to enhance the current, the TEVC recording was performed at a holding potential of −100 mV.

[2] = target: human ERG (hERG) channels (Homo sapiens, UniProt Q12809); parameters: expressed in transfected cells; host or cells: Xenopus oocytes; conditions: published; cited from earlier work
Chain of human ERG (hERG) channels (Q12809 whole entry): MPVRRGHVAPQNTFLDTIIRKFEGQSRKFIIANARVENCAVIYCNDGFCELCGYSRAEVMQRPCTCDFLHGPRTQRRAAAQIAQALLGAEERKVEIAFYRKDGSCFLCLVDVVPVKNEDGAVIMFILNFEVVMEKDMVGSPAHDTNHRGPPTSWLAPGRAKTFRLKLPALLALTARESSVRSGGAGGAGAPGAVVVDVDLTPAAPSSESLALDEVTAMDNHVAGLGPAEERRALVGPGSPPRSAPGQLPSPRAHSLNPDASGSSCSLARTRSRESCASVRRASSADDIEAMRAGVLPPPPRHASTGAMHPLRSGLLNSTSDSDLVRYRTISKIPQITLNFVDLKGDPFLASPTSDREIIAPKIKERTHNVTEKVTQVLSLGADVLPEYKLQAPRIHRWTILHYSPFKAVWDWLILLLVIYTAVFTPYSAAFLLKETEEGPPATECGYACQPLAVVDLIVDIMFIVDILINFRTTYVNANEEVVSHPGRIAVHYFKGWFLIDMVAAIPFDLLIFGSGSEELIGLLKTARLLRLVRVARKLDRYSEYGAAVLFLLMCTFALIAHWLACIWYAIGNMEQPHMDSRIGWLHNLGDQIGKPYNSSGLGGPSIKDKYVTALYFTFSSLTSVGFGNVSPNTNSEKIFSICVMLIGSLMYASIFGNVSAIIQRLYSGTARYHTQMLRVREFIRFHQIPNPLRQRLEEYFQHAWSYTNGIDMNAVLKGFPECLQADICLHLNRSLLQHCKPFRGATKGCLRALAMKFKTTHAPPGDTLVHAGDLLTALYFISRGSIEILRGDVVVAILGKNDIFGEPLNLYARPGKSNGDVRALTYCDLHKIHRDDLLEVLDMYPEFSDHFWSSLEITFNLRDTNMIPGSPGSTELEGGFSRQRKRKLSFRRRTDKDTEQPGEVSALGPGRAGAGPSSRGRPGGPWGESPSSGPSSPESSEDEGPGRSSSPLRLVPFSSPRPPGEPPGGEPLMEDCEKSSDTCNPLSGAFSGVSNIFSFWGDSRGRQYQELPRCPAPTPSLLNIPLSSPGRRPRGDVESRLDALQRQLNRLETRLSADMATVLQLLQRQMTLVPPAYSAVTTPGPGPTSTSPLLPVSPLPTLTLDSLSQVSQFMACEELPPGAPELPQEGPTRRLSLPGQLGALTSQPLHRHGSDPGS

Cc1cc(NC(=O)Nc2ccc(Br)s2)n(-c2ccccc2)n1 [GAT1508, 1-(5-bromothiophen-2-yl)-3-(3-methyl-1-phenyl-1H-pyrazol-5-yl)urea]
time spent on the open arm (elevated plus maze (EPM)): 48.7 ± 8.3 s | current response of BLA neurons (in words) ([1]; 10 μM perfusion): did not produce responses | current response of BLA neurons (in words) ([1]; 30 μM perfusion): produced significant outward current | effect on baclofen-induced current in BLA neurons (in words) ([1]; 10 min perfusion of 10 μM, 100 μM baclofen puff): significantly potentiated baclofen-induced current

Cc1cc(NC(=O)Nc2ccc(F)c(F)c2)n(-c2ccccc2)n1 [ML297, reference compound]
EC50 (GIRK1/2): ~689 nM | IC50 [2]: ~10 µM
